As usually defined, the IC50 is the midpoint of a concentration-inhibition curve.

The text below walks through data of patent US20210276987A1, “PHARMACEUTICAL AGENTS FOR USE IN SMOKING AND TOBACCO CESSATION” (Washington State University, priority 2018, published 2021).

The test system of series [1] is at least two (not named) of CYPs 1A2, 2B6, 2C8, 2C9, 2C19, 2D6, 2E1 and 3A4, relative to CYP2A6. Description: in vitro. The following applies: human.
In series [2] the target is T1, CYP2A6 (Homo sapiens, UniProt P11509).
T1 sequence (P11509 1-494): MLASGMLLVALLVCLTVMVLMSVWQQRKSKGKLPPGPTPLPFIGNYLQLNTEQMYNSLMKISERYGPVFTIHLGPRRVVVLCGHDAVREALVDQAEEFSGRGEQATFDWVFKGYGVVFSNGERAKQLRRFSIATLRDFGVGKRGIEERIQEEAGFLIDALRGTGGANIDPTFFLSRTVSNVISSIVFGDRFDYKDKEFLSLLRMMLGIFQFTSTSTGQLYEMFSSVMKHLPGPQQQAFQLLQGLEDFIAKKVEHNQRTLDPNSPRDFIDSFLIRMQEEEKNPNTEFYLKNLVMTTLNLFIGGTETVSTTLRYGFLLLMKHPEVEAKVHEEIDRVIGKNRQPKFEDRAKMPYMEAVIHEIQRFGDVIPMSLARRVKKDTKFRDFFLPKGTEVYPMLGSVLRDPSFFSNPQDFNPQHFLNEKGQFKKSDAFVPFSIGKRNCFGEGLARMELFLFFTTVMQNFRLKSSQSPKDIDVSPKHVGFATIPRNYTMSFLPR
Description: biochemical. Particulars: IC50 against CYP2A6; human liver microsomes. Background: Liver microsomes are vesicles of endoplasmic reticulum, rich in cytochrome P450 enzymes.

Series [3] deals with UGTs 1A1, 1A4, 1A6, 1A9, 2B4, 2B7, 2B10, 2B15 and 2B17. Description: Selectivity over other major hepatic UGT enzymes (panel statement). Format: biochemical, human.
The next series concerns the target UGT2B17 (Homo sapiens, UniProt O75795). The following applies: Table 10.
The next series has as its target UGT2B15 (Homo sapiens, UniProt P54855). Particulars: Table 10.
Another series has as its target UGT2B4 (Homo sapiens, UniProt P06133). Particulars: Table 10.
Another series has as its target T2, CYP2C8 (Homo sapiens, UniProt P10632).
T2 sequence (P10632 1-490): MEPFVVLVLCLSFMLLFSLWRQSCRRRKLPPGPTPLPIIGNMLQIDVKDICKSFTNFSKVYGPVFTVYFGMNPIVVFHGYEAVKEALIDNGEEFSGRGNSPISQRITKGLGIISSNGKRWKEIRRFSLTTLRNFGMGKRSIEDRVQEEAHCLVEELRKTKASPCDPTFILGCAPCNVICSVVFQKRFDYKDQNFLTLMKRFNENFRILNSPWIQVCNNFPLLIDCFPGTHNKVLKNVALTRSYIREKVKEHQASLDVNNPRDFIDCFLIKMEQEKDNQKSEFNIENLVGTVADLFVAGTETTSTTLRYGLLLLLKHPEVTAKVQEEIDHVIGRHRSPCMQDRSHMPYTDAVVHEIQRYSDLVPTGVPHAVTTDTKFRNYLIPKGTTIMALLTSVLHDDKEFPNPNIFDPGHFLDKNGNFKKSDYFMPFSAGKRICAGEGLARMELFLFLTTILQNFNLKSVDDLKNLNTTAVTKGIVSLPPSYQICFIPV
Particulars: Table 6.

A further series deals with CYP2C19 (Homo sapiens, UniProt P33261). Description: CYP2C19 inhibition assay, human liver microsomes, omeprazole probe (cocktail). Particulars: Table 6.
The target in the next series is CYP2E1 (Homo sapiens, UniProt P05181). The following applies: Table 6.
A further series concerns the target T3, CYP1A2 (Homo sapiens, UniProt P05177).
T3 sequence (P05177 1-516): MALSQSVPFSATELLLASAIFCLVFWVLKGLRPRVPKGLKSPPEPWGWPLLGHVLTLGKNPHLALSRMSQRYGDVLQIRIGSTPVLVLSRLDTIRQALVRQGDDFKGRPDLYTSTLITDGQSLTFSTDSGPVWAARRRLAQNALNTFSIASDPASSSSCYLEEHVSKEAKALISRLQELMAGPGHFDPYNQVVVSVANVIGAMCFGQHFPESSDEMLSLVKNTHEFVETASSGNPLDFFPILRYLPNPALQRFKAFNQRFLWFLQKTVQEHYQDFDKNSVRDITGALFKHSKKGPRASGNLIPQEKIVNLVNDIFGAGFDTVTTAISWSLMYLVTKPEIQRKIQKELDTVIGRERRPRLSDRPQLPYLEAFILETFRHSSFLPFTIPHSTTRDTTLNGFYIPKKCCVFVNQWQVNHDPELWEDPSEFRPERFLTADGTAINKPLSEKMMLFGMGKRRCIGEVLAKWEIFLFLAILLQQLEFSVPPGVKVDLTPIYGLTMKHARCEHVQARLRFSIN
Nature of the series: CYP1A2 inhibition assay, human liver microsomes, phenacetin probe (cocktail). Particulars: Table 6.

The target in a further series is UGT1A4 (Homo sapiens, UniProt P22310). The following applies: Table 10.
The target of a further series is CYP2D6 (Homo sapiens, UniProt P10635). Nature of the series: CYP2D6 inhibition assay, human liver microsomes, dextromethorphan probe (cocktail). Particulars: Table 6.
The next series has as its target UGT1A6 (Homo sapiens, UniProt P19224). The following applies: Table 10.
Another series deals with UGT2B7 (Homo sapiens, UniProt P16662). The following applies: Table 10.
A further series deals with UGT1A1 (Homo sapiens, UniProt P22309). Particulars: Table 10.
The target in series [4] is T1, CYP2A6. Particulars: read-out: IC50 against CYP2A6; Table 5, alkyne linker agents; pooled human liver microsomes, coumarin […].

Where two headings read alike, the source gives them in different places. Where only a bound is given, the exact number is not on record here.

Chain of CYP2D6 (P10635 whole entry): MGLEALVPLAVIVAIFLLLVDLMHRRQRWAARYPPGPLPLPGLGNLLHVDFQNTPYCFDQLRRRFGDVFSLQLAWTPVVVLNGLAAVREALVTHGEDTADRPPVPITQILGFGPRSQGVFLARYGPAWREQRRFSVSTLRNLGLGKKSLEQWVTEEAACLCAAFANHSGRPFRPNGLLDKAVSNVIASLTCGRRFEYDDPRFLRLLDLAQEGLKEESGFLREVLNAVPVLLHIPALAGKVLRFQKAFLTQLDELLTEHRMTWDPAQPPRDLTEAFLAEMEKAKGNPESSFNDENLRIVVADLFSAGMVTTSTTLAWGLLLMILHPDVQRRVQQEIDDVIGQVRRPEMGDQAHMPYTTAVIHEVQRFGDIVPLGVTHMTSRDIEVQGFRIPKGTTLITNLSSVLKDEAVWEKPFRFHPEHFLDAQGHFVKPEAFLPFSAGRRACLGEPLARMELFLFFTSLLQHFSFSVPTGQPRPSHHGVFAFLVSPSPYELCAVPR
Chain of UGT2B15 (P54855 24-530): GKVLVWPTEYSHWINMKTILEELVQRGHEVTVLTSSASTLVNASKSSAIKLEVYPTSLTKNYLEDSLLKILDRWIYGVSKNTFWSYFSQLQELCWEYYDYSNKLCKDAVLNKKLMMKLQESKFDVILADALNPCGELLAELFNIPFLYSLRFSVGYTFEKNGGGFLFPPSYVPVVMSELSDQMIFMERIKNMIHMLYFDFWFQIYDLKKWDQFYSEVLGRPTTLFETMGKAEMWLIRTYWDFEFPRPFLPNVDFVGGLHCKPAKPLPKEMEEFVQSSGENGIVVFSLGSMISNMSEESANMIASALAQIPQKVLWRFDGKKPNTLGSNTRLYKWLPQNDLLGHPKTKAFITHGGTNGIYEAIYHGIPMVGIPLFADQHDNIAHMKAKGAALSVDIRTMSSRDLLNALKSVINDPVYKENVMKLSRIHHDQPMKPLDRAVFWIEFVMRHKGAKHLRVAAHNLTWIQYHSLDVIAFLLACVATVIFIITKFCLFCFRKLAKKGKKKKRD
Chain of CYP2C19 (P33261 whole entry): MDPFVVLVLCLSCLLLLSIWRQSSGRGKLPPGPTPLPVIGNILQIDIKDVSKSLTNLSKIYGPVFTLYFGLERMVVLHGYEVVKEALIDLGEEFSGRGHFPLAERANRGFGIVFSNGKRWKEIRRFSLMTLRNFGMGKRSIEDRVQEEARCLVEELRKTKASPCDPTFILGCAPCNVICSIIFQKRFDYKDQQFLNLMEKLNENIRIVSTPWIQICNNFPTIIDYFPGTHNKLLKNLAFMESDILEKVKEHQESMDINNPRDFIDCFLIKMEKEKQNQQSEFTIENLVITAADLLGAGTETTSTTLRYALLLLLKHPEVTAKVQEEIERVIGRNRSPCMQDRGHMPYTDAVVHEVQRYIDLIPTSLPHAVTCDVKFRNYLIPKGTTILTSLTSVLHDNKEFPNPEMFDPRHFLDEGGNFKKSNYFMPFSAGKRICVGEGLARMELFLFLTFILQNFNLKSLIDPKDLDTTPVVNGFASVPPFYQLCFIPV
Chain of UGT2B17 (O75795 24-530): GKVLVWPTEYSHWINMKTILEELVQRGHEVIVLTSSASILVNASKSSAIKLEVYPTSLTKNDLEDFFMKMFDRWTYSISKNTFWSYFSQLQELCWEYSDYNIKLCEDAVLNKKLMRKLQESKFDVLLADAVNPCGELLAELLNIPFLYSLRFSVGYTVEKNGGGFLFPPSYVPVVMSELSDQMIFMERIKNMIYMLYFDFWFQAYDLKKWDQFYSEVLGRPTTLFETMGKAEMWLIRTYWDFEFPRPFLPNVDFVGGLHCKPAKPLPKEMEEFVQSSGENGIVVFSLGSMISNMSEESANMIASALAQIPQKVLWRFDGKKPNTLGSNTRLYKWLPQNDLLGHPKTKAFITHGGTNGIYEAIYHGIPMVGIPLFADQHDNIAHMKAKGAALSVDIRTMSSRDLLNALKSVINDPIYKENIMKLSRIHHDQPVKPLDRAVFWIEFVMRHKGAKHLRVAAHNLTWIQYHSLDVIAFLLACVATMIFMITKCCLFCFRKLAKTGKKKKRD
Chain of CYP2E1 (P05181 whole entry): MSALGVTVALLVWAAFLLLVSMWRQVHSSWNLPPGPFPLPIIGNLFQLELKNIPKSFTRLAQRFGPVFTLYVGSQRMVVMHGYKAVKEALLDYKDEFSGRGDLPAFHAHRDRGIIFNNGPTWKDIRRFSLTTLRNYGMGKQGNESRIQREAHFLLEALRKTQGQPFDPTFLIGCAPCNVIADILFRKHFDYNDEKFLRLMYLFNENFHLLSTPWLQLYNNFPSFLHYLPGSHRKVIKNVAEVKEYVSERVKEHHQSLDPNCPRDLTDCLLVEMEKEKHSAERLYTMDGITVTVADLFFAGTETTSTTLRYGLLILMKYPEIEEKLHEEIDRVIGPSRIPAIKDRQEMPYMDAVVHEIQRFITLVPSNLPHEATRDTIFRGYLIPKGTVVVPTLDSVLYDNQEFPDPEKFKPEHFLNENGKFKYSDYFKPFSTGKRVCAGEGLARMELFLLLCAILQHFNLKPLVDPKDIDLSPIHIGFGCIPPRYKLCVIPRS
Chain of UGT2B4 (P06133 24-528): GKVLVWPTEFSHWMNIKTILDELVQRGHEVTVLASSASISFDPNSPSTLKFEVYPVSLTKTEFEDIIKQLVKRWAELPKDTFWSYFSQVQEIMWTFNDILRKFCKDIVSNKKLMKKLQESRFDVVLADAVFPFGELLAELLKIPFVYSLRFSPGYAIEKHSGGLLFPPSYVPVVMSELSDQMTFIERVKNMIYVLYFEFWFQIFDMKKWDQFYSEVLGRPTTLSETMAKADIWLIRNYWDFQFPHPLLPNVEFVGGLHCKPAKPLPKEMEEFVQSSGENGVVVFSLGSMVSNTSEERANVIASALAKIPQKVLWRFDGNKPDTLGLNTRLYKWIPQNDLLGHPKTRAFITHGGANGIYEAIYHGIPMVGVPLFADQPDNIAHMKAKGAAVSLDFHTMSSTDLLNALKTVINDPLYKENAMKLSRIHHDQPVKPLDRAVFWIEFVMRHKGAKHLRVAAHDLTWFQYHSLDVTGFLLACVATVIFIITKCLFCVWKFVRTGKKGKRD
Chain of UGT1A6 (P19224 27-532): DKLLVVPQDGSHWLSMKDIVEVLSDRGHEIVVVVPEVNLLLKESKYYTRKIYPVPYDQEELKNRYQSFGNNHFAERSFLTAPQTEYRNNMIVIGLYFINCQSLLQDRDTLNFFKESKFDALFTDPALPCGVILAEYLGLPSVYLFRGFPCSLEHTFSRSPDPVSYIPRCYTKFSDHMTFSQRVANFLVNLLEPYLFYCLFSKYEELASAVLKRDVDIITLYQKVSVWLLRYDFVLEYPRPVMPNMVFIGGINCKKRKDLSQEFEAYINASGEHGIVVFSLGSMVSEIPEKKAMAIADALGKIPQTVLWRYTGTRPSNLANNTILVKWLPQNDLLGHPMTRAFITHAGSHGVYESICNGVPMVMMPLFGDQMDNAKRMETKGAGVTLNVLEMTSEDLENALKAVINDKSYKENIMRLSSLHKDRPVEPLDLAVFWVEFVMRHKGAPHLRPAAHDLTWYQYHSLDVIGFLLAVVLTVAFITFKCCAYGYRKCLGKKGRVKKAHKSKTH
Chain of UGT1A4 (P22310 29-534): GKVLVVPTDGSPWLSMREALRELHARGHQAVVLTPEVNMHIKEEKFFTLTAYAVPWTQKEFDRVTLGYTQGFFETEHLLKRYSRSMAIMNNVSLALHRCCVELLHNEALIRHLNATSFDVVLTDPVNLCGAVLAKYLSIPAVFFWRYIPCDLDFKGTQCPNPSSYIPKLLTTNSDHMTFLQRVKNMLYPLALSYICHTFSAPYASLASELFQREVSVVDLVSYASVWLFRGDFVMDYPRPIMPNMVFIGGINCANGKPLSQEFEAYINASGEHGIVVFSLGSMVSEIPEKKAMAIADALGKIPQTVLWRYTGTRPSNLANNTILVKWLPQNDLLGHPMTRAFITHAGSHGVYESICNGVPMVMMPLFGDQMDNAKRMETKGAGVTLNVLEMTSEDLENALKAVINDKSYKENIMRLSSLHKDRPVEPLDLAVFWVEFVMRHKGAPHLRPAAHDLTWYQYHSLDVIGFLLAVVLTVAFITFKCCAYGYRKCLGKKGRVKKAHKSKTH
Chain of UGT1A1 (P22309 26-533): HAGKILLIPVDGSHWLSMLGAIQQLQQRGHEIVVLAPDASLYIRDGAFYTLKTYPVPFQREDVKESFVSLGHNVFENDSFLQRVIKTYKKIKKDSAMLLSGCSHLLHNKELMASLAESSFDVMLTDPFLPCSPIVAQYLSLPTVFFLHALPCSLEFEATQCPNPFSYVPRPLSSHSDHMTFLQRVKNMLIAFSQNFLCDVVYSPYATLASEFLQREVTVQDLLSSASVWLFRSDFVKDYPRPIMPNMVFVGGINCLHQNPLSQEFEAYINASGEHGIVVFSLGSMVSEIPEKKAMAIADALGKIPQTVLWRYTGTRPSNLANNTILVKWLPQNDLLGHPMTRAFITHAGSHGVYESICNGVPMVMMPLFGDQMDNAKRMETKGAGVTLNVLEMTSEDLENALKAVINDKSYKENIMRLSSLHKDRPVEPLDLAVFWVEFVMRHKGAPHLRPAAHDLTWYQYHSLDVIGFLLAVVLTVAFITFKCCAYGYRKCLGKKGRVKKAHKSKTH

Consider `COc1ccncc1C#CCN` [Compound K, 3-(4-methoxypyridin-3-yl)prop-2-yn-1-amine], for which the selectivity ratio at 15 min in series [1] was less than 5. For the same compound, the 50% inhibitory concentration (IC50) against CYP2A6 [2] was less than 10 µM; on CYP2A6 [4], 3.4 µM. In addition, the “UGThepatic/UGT2B10 IC50 ratio against all UGT enzymes tested” value in series [3] was greater than 3.5. In addition, on UGT2B17, the “IC50 ratio UGT2B17/UGT2B10” value amounted to 26. For the same compound, the “IC50 ratio UGT2B15/UGT2B10” value on UGT2B15 is reported as 30. In addition, the “IC50 ratio UGT2B4/UGT2B10” value on UGT2B4 was determined as 3.5. The “IC50 ratio CYP2C8/CYP2A6” value at CYP2C8 is given as greater than 15. In addition, on CYP2C19, the “IC50 ratio CYP2C19/CYP2A6” value was 2.7. Moreover, on CYP2E1, the “IC50 ratio CYP2E1/CYP2A6” value amounted to 5.3. For the same compound, the “IC50 ratio CYP1A2/CYP2A6” value on CYP1A2 worked out at 7.4. The “IC50 ratio UGT1A4/UGT2B10” value on UGT1A4 is on record as 7. Further, on CYP2D6, the “IC50 ratio CYP2D6/CYP2A6” value is greater than 15. The “IC50 ratio UGT1A6/UGT2B10” value at UGT1A6 was 29. The “IC50 ratio UGT2B7/UGT2B10” value at UGT2B7 stood at 13. Besides, the “IC50 ratio UGT1A1/UGT2B10” value on UGT1A1 is given as 4.
